Results as given in patent US8163917B2, “Azaindoles useful as inhibitors of Janus kinases” (Vertex Pharmaceuticals Incorporated, priority 2006, dated 2012).

Experiments:
[1] = biological target: JAK-2 enzyme (Homo sapiens, UniProt O60674); experiment: JAK2 Inhibition Assay; type: biochemical; settings: 12 μM ATP, 15 μM poly(Glu)4Tyr
Method: (§1) Compounds were screened for their ability to inhibit JAK3 using the assay shown below. Reactions were carried out in a kinase buffer containing 100 mM HEPES (pH 7.4), 1 mM DTT, 10 mM MgCl2, 25 mM NaCl, and 0.01% BSA. Substrate concentrations in the assay were 5 μM ATP (200 uCi/μmole ATP) and 1 μM poly(Glu)4Tyr. Reactions were carried out at 25° C. and 1 nM JAK3.
(§2) To each well of a 96 well polycarbonate plate was added 1.5 μl of a candidate JAK3 inhibitor along with 50 μl of kinase buffer containing […] and 10 μM ATP. This was then mixed and 50 μl of kinase buffer containing 2 nM JAK3 enzyme was added to start the reaction. After 20 minutes at room temperature (25° C.), the reaction was stopped with 50 μl of 20% trichloroacetic acid (TCA) that also contained 0.4 mM ATP. The entire contents of each well were then transferred to a 96 well glass fiber filter plate using a TomTek Cell Harvester. After washing, 60 μl of scintillation fluid was added and ^33P incorporation detected on a Perkin Elmer TopCount.
The assays were as described above in Example 3 except that JAK-2 enzyme was used, the final poly(Glu)4Tyr concentration was 15 μM, and final ATP concentration was 12 μM.

[2] = biological target: T1, JAK3 (Homo sapiens, UniProt P52333); experiment: JAK3 Inhibition Assay; type: biochemical; settings: 5 μM ATP, 1 μM poly(Glu)4Tyr, 1 nM JAK3, 25° C.
T1 sequence (P52333 1-1124): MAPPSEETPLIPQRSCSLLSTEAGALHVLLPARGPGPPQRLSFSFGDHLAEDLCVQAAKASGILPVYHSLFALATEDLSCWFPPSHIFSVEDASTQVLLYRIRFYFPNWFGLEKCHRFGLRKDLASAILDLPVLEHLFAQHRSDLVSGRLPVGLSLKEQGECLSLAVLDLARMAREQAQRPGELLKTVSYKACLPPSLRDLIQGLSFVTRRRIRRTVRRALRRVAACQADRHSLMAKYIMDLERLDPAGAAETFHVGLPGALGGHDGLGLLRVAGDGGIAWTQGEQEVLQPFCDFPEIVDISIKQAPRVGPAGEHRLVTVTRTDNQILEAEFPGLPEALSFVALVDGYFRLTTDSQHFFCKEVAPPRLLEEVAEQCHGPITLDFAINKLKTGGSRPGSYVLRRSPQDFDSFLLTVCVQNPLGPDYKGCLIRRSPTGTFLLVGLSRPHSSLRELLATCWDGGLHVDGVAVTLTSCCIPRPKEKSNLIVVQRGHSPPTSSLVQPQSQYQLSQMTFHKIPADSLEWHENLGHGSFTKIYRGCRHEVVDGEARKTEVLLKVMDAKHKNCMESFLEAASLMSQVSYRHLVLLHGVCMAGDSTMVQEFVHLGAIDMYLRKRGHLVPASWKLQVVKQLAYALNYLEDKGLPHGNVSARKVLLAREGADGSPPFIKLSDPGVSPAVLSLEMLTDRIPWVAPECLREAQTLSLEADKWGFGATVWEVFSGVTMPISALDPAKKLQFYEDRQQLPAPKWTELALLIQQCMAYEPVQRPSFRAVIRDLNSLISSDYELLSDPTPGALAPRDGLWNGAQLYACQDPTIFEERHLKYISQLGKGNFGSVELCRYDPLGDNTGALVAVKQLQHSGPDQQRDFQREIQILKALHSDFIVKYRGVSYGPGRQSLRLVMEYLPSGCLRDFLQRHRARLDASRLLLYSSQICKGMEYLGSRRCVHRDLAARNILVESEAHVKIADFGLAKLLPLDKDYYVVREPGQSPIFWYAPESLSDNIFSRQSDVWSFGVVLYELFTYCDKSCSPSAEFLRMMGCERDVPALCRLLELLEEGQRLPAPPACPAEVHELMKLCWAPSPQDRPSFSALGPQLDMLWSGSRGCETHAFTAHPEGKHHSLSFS
Method: as §1, §2

Chain of JAK-2 enzyme (O60674 whole entry): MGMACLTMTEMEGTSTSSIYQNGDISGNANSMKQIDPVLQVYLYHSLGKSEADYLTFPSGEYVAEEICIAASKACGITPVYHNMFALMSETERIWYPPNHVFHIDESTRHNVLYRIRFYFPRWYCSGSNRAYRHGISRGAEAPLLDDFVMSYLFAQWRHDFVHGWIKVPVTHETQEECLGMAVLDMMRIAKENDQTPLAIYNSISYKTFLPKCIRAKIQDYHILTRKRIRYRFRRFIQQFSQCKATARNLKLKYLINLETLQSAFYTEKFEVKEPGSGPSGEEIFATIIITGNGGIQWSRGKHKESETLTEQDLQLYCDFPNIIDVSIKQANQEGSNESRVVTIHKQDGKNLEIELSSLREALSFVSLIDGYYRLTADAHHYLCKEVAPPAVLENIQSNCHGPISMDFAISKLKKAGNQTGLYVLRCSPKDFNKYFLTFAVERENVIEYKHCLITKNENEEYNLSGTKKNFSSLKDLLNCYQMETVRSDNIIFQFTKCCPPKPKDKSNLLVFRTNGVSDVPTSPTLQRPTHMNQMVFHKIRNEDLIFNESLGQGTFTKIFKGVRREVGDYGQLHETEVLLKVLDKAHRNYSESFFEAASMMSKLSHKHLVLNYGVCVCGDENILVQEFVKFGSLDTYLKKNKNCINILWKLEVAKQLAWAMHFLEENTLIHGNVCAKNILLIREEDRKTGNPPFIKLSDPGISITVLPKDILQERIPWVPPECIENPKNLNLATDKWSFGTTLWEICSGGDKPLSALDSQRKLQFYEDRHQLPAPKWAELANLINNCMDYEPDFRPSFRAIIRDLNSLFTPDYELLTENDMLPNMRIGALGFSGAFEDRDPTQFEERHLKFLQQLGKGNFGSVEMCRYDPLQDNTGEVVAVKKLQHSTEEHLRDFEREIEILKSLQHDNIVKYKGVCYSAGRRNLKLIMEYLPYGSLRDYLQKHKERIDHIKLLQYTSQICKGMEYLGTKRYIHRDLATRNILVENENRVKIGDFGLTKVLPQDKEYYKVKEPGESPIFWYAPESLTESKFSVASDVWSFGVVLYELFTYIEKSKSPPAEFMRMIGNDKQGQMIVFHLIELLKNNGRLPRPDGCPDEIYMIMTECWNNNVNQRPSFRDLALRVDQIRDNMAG

Row | SMILES | Ki [1] | Ki [2]
1 | O=C(NCC(F)(F)F)C1COCCN1c1nc(-c2c[nH]c3ncc(Cl)cc23)ncc1F (stereo not drawn) [Compound 38] | ≥ 500 nM | 
2 | O=C(NCC(F)(F)F)[C@@H]1CCCCN1c1nc(-c2c[nH]c3ncc(Cl)cc23)ncc1F [Compound 68] | ≥ 5000 nM | ≥ 2000 nM
3 | O=C(NC1CC1)[C@H]1CCCN1c1nc(-c2c[nH]c3ncc(Cl)cc23)ncc1F [Compound 177] |  | ≥ 100 nM
4 | CCCNC(=O)C(C)(C)Nc1nc(-c2c[nH]c3ncc(Cl)cc23)nc2cc(OC)c(OC)cc12 [Compound 223] |  | ≥ 100 nM
5 | O=C(NCC(F)(F)F)[C@@H]1CCCN1c1nc(-c2c[nH]c3ncccc23)ncc1F [Compound 310] | ≥ 500 nM | ≥ 100 nM
6 | CCCNC(=O)c1cc(N2CCC[C@@H]2C(=O)NCC(F)(F)F)nc(-c2c[nH]c3ncc(Cl)cc23)n1 [Compound 319] | ≥ 5000 nM | ≥ 2000 nM
7 | O=C(NC1CC1)c1cc(N2CCC[C@@H]2C(=O)NCC(F)(F)F)nc(-c2c[nH]c3ncc(Cl)cc23)n1 [Compound 320] | ≥ 500 nM | ≥ 100 nM
8 | CC(C)(Nc1nc(-c2c[nH]c3ncc(Cl)cc23)ncc1C#N)C(=O)NCCC(F)(F)F [Compound 326] |  | ≥ 100 nM
9 | CCOC(=O)c1cnc(-c2c[nH]c3ncc(Cl)cc23)nc1N1CCC[C@@H]1C(=O)N(C)CC(F)(F)F [Compound 338] | ≥ 500 nM | ≥ 100 nM
10 | CN(CC(F)(F)F)C(=O)[C@H]1CCCN1c1nc(-c2c[nH]c3ncccc23)ncc1O [Compound 339] | ≥ 500 nM | ≥ 100 nM
11 | CCC(CC)(Nc1ccnc(-c2c[nH]c3ncccc23)n1)C(=O)NCC(F)(F)F [Compound 348] | ≥ 500 nM | 
12 | O=C(NCC(F)(F)F)[C@H]1C[C@H](O)CN1c1nc(-c2c[nH]c3ncccc23)ncc1F [Compound 351] | ≥ 500 nM | ≥ 100 nM
13 | CN(c1nc(-c2c[nH]c3ncccc23)ncc1F)C1(C(=O)NCC(F)(F)F)CC1 [Compound 356] | ≥ 500 nM | ≥ 100 nM
14 | CC(C)[C@@H](Nc1nc(-c2c[nH]c3ncccc23)ncc1F)C(=O)NCC(F)(F)F [Compound 367] | ≥ 500 nM | ≥ 100 nM
15 | CCCNC(=O)N1CCN(c2ccnc(-c3c[nH]c4ncccc34)n2)[C@@H](C(=O)NCC(F)(F)F)C1 [Compound 372] | ≥ 500 nM | 
16 | COc1cc2nc(-c3c[nH]c4ncccc34)nc(NC(C)(C)C(=O)NCC(F)F)c2cc1OC [Compound 390] |  | ≥ 100 nM

Now from value to molecule:

Row | Ki [1] | Ki [2] | SMILES
17 | ≥ 500 nM |  | C[C@H]1CCN(c2nc(-c3c[nH]c4ncc(Cl)cc34)ncc2F)[C@@H]1C(=O)NCC(F)(F)F [Compound 9]
18 | ≥ 500 nM | ≥ 100 nM | CC(C)C[C@@H](Nc1nc(-c2cn(C)c3ncc(Cl)cc23)ncc1F)C(=O)NCC(F)(F)F [Compound 22]
19 | ≥ 500 nM | ≥ 100 nM | COC(=O)c1cc(N2CCC[C@@H]2C(=O)NCC(F)(F)F)nc(-c2c[nH]c3ncc(Cl)cc23)n1 [Compound 35]
20 | ≥ 500 nM | ≥ 100 nM | O=C(O)c1cnc(-c2c[nH]c3ncc(Cl)cc23)nc1N1CCC[C@@H]1C(=O)NCC(F)(F)F [Compound 56]
21 | ≥ 500 nM |  | CCOC(=O)c1cnc(-c2c[nH]c3ncc(Cl)cc23)nc1N1CCC[C@@H]1C(=O)NCC(F)(F)F [Compound 57]
22 | ≥ 500 nM | ≥ 100 nM | CNC(=O)c1cc(N2CCC[C@@H]2C(=O)NCC(F)(F)F)nc(-c2c[nH]c3ncc(Cl)cc23)n1 [Compound 317]
23 | ≥ 5000 nM | ≥ 100 nM | CCNC(=O)c1cc(N2CCC[C@@H]2C(=O)NCC(F)(F)F)nc(-c2c[nH]c3ncc(Cl)cc23)n1 [Compound 318]
24 | ≥ 500 nM | ≥ 100 nM | O=C(NCC(F)(F)F)[C@@H]1CNCCN1c1nc(-c2c[nH]c3ncccc23)ncc1F [Compound 321]
25 |  | ≥ 100 nM | CC(C)NC(=O)[C@H]1CCCN1c1nc(-c2c[nH]c3ncc(Cl)cc23)ncc1F [Compound 322]
26 | ≥ 500 nM | ≥ 100 nM | CCN(C)C(=O)[C@H]1CCCN1c1nc(-c2c[nH]c3ncc(Cl)cc23)ncc1F [Compound 336]
27 |  | ≥ 100 nM | CCN(C)C(=O)[C@H]1CCCN1c1ccnc(-c2c[nH]c3ncc(Cl)cc23)n1 [Compound 337]
28 | ≥ 500 nM | ≥ 100 nM | CN(CC(F)(F)F)C(=O)[C@H]1CCCN1c1nc(-c2c[nH]c3ncc(Cl)cc23)ncc1O [Compound 340]
29 |  | ≥ 100 nM | CC(C)CC(=O)N1CCN(c2ccnc(-c3c[nH]c4ncccc34)n2)[C@@H](C(=O)NCC(F)(F)F)C1 [Compound 369]
30 |  | ≥ 100 nM | CC(C)(C)CC(=O)N1CCN(c2ccnc(-c3c[nH]c4ncccc34)n2)[C@@H](C(=O)NCC(F)(F)F)C1 [Compound 370]
31 |  | ≥ 100 nM | COc1cc2nc(-c3c[nH]c4ncccc34)nc(NC(C)(C)C(=O)NCCF)c2cc1OC [Compound 388]
